Reference: patent US7507749B2, “Antitumor agents” (priority 2001, dated 2009)
Where two headings read alike, the source gives them in different places.

Tests used:
[1] = system: mammary adenocarcinoma-17/Adr; test: Test E: R-enantiomer of compound 22b and compound 22a against early stage mammary adenocarcinoma-17/Adr; assay type: in vivo
Experimental: Then, P.B.S. was added and the pH adjusted to 7 with HCl. A volume of 0.2 ml per injection was administered to animals intravenously. […] Then, P.B.S. was added and the pH was adjusted to 7 with HCl. A volume of 0.2 ml per injection was administered to animals intravenously.

colon carcinoma 26 = system: colon carcinoma 26
Experimental: In this trial the R-enantiomers of XK-469, compound 22c, and compound 22b were compared against advanced staged colon carcinoma 26 in female Balb/c mice. […] Cage #2 was 22b at 400 mg/kg and Cage #4 was 22c at 400 mg/kg.
The XK469-R, 22b, and 22c compound doses were all prepared the same, using 3% ethanol, 1% POE-80, and 0.5% sodium bicarbonate. The injection volume was 0.2 mu/mouse IV. […] The mice were Balb/c female mice: DOB Feb. 12, 2001; DOA Mar. 27, 2001; DOT Sep. 8, 2001, with an average body weight of 24.7 grams at the start of Rx administration. The tumor was Colon Carcinoma-26 passage 141; date of implant Sep. 8, 2001, and implanted at 30 to 60 mg fragments bilaterally SC. All tumors were 63 to 171 mg on day 6, the day of first Rx.

[2] = system: mammary adenocarcinoma-17/Adr; test: Test D: racemic compound 22c against early stage mammary adenocarcinoma-17/Adr; assay type: in vivo; conditions: for % Body Wt Loss at Nadir / % T/C mass / Activity Rating / Day of Nadir / Drug Deaths / Growth Delay / Log Kill / Median Tumor Mass on Day 10 (Range) / Tumor Free day-42: days 1,2,3,6,7,8
Experimental: Female C3H/HeN (MTV-neg) mice were obtained from N.C.I. Frederick (D.O.B. was Oct. 9, 2000; D.O.A. was Nov. 14, 2000). […] Then, P.B.S. was added, and the pH was adjusted to 7 with HCl. 0.2 ml per injection was administered IV.

[3] = system: pancreatic ductal adenocarcinoma-03; assay type: in vivo
Experimental: BDF1 female mice were obtained from N.C.I., CRL-Ral (D.O.B. was Feb. 26, 2001; D.O.A. was Mar. 10, 2001). The mice weighed an average of 22.5 gm. Mice were implanted SC with pancreatic ductal adenocarcinoma-03 passage 143. (D.O.T. was May 29, 2001; Td was 2.3 days).
The R-enantiomer of compound 22c was suspended in 3% ethanol, 1% POE-80, 0.25% sodium bicarbonate (by volume) to effect solution. dH2O was then added, and the pH adjusted to 7 with HCl. […] The R-enantiomer of compound 22b was suspended in 3% ethanol, 1% POE-80, 0.5% sodium-bicarbonate (by volume) to effect solution. Then, dH2O was added, and the pH adjusted to 7.5 with HCl. […] Adriamycin (source ADRIA; lot 2033BC) was suspended in dH2O to effect solution, and the pH was 6.0.
Treatment began six days following implant, at which time the tumors were palpable size (126 mg median). The duration of treatment was prolonged (18 days) in order to obtain a clear separation in efficacy between the compounds.

[4] = system: mammary adenocarcinoma-16/C; test: Test F: R-enantiomers of 22b and 22c against early staged mammary adenocarcinoma-16/C; assay type: in vivo, C3H female mice
Experimental: C3H female mice were obtained from N.C.I. (D.O.B. was […]; D.O.A. was Jan. 27, 2001). The mice weighed an average of 19.2 gm. Mice were implanted SC with mammary adenocarcinoma-16/C passage-170, a fast growing, highly invasive, highly metastatic tumor (D.O.T. was Mar. 8, 2001; Td was 1.2 days).
The R-enantiomers of both Compound 22c and Compound 22b were each suspended in 3% ethanol, 1% POE-80, 0.5% sodium bicarbonate (by volume) to effect solution, P.B.S. was then added and the pH adjusted to 7 with HCl. Adriamycin (ADRIA; lot number 20338c) was suspended in dH2O to effect solution and the pH was adjusted to 6.0. Mice were administered 0.2 ml per IV injection.

[5] = Cage 3, IV 36 mg/kg day 1, 48 mg/kg/inj qd 2-7, total 324 mg/kg
[6] = Cage 4, IV 7 inj, total 162 mg/kg
[7] = Cage 5, IV 7 inj, total 81 mg/kg
[8] = Cg 5, IV 50 mg/kg/inj days 6,8,10,13,15, total 250 mg/kg
[9] = Cage 3, IV 50, 62.5, then 60 mg/kg/inj, total 352.5 mg/kg
[10] = Cage 4, IV 30, 37.5, then 36 mg/kg/inj, total 211.5 mg/kg
[11] = Cg 13 in table (Cage 12 in text), IV 80 mg/kg/inj days 6,9,12,15,18,21, total 480 mg/kg
[12] = Cage 2, IV 65 mg/kg/inj qd 1-4, total 260 mg/kg
[13] = Cage 3, IV 65 mg/kg/inj days 1,3,5,7, total 260 mg/kg
[14] = Cage 3, IV 65 mg/kg/inj days 1,3,5,7, total 260 mg/kg, listed as R-enantiomer of compound 22c
[15] = Cage 4, IV 40 mg/kg/inj days 1,3,5,7, total 160 mg/kg
[16] = Cage 4, IV 40 mg/kg/inj days 1,3,5,7, total 160 mg/kg, listed as R-enantiomer of compound 22c
[17] = Cg 8, IV 110 mg/kg/inj days 6,10, total 220 mg/kg
[18] = Cg 6, IV 80 mg/kg/inj days 6,8,10,14,16, total 400 mg/kg
[19] = Cg 7, IV 50 mg/kg/inj days 6,8,10,13,15, total 250 mg/kg

## CC(Oc1ccc(Oc2ccc3ccc(F)cc3n2)cc1)C(=O)O (racemic) [Compound 22a, 2-[4-(7-fluoroquinolin-2-yloxy)phenoxy]propanoic acid]
[1]; [5]
  % Body Wt Loss at Nadir: −1.6%
  % T/C mass: 14%
  Activity Rating: ++ (1.3-1.9)
  Day of Nadir: 5 days
  Drug Deaths: 0/5
  Growth Delay: 5 days
  Log Kill: 1.5
  Median Tumor Mass on day 9 (Range): 138 (63-207) mg
  Tumor Free day-23: 0/5
[1]; Cage 3, IV 48 mg/kg/inj, limits higher individual dosages
  Neuromuscular toxicity: severe neuromuscular toxicity
[1]; Cage 3, IV 48 mg/kg/inj, longer for the rear legs
  Duration of leg dysfunction (front legs): 15 min
[1]; [6]
  % Body Wt Loss at Nadir: −1.5%
  % T/C mass: >100%
  Activity Rating: inactive
  Day of Nadir: 5 days
  Drug Deaths: 0/5
  Growth Delay: 1 days
  Log Kill: 0.3
  Median Tumor Mass on day 9 (Range): 975 (252-1836) mg
  Tumor Free day-23: 0/5
[1]; [7]
  % Body Wt Loss at Nadir: −3.0%
  % T/C mass: 77%
  Activity Rating: inactive
  Day of Nadir: 5 days
  Drug Deaths: 0/5
  Growth Delay: 1 days
  Log Kill: 0.3
  Median Tumor Mass on day 9 (Range): 743 (725-1413) mg
  Tumor Free day-23: 0/5

## CC(Oc1ccc(Oc2ccc3ccc(Br)cc3n2)cc1)C(=O)O (racemic) [Racemic 22c, 2-[4-(7-bromoquinolin-2-yloxy)phenoxy]propanoic acid]
Colon carcinoma 26; Cage 4, 400 mg/kg, omitted from Table 8
  Toxicity of dose group: toxic
Colon carcinoma 26; [8]
  Activity Rating: ++++ (>2.8)
  CR's: 3/6
  tumor free survivors on day 55: 3/6
[2]; Cage 3, 60 to 62.5 mg/kg dose IV
  Duration of slowing of nerve conduction: approximately 10 minutes
[2]; Cage 3, 60 to 62.5 mg/kg dose IV, mild gait disturbance
  Neuromuscular toxicity: modest slowing of nerve conduction
[2]; [9]
  % Body Wt Loss at Nadir: −5.5%
  % T/C mass: 0%
  Activity Rating: ++++ (>2.8)
  Day of Nadir: 11 days
  Drug Deaths: 0/5
  Growth Delay: 14 days
  Log Kill: 4.2
  Median Tumor Mass on Day 10 (Range): 0 (0-63) mg
  Tumor Free day-42: 0/5
[2]; Cage 3, total 352.5 mg/kg IV
  Day tumors reached 1000 mg (range): 21 (range 19-42) day
[2]; [10]
  % Body Wt Loss at Nadir: −4.1%
  % T/C mass: 5.6%
  Activity Rating: ++++ (>2.8)
  Day of Nadir: 13 days
  Drug Deaths: 0/5
  Growth Delay: 10 days
  Log Kill: 3.0
  Median Tumor Mass on Day 10 (Range): 172 (0-344) mg
  Tumor Free day-42: 0/5
[2]; Cage 4, IV 30-37.5 mg/kg/inj, total 211.5 mg/kg
  Neuromuscular toxicity: no gait disturbance
[2]; Cage 4, total 211.5 mg/kg IV
  Day tumors reached 1000 mg (range): 17 (range 14-21) day

## C[C@@H](Oc1ccc(Oc2ccc3ccc(Br)cc3n2)cc1)C(=O)O [Compound R-22c]
Colon carcinoma 26; [8]
  Drug Deaths: 0/6
Colon carcinoma 26; mouse, in vivo
  % Body Wt change at nadir: −8.1% (17)
  Activity Rating: ++++ (key: ++++: >2.8; +++: 2.0-2.8; ++: 1.3-1.9; +: 0.7-1.2; −: <0.7)
  CR's: 3/6
  Growth Delay in Days: 3/6
  Log Kill: >3.5
  Median time for tumors to 700 mg (range): 3/6 tumor free
  PR's: 3/6
  Tumor Free day-156: 3/6
  day of nadir: −8.1% (17) day
[3]; Cage 12 in text, IV 80 mg/kg/inj, lasted only a few minutes
  Behavior post injection: agitated post IV injection
[3]; Cage 12 in text, IV 80 mg/kg/inj, total 480 mg/kg
  Neuromuscular toxicity: no neuromuscular toxicity
[3]; [11]
  % Body Wt change between day 6 and day 24: +5.9%
  % T/C mass: 2.8%
  Activity Rating: ++++ (>2.8)
  CR's: 3/4
  Drug Deaths: 0/4
  Growth Delay: 23.5 days
  Log Kill: 3.1
  Median Tumor Mass on Day 24 (Range): 63 mg
  Median time for tumors to 1,000 mg (range): 40 days
  PR's: 3/4
  Tumor Free day-157: 0/4
[4]; [12]
  % Body Wt Loss at Nadir: −22.9%
  % T/C mass: toxic
  Activity Rating: toxic
  Cause of death: G.I. epithelial damage
  Day of Nadir: 6 days
  Drug Deaths: 5/5
  Growth Delay in Days: toxic
  Log Kill: toxic
  Median Tumor Mass on Day 10 (Range): toxic
  Median time for tumors to 1000 mg (range): toxic
  Neuromuscular toxicity: No neuromuscular toxicity
  Tumor Free day-155: 0/5
[4]; Cage 2, IV 65 mg/kg/inj qd 1-4, total 260 mg/kg, listed as R-enantiomer of compound 22c
  Drug Deaths: All the mice died
[4]; [13]
  % Body Wt Loss at Nadir: −8.3%
  % T/C mass: 4%
  Activity Rating: ++ (1.3-1.9)
  Day of Nadir: 9 days
  Day of full recovery of body weight: 12 days
  Drug Deaths: 0/5
  Growth Delay: 5.8 days
  Log Kill: 1.7
  Median Tumor Mass on Day 10 (Range): 63 mg
  Median time for tumors to 1000 mg (range): 15.3 (14-21.5) days
  Neuromuscular toxicity: no neuromuscular toxicity
  Tumor Free day-155: 0/5
[4]; [14]
  % Body Wt Loss at Nadir: −8.3%
  % T/C mass: 4%
  Drug Deaths: no deaths
[4]; [15]
  % Body Wt Loss at Nadir: +6.4%
  % T/C mass: 9%
  Activity Rating: ++ (1.3-1.9)
  Day of Nadir: 8 days
  Drug Deaths: 0/5
  Growth Delay: 4.7 days
  Log Kill: 1.4
  Median Tumor Mass on Day 10 (Range): 138 mg
  Median time for tumors to 1000 mg (range): 14.2 (12.5-16.7) days
  Tumor Free day-155: 1/5
[4]; [16]
  % Body Wt Loss at Nadir: +6.4%
  % T/C mass: 9%
[4]; whole trial (Test F), IV
  Neuromuscular toxicity: completely devoid of neuromuscular toxicity

## O=P1(N(CCCl)CCCl)NCCCO1 (stereo not drawn) [Cytoxan]
Colon carcinoma 26; [17]
  % Body Wt change at nadir: −9.4%
  Activity Rating: no meaningful activity
  CR's: 0/5
  Drug Deaths: 0/5
  Growth Delay: 1 days
  Log Kill: 0.2
  Median time for tumors to 700 mg (range): 14 (12-15) days
  PR's: 0/5
  Tumor Free day-156: 0/5
  day of nadir: 12 days

## CC(Oc1ccc(Oc2cnc3ccc(Cl)cc3n2)cc1)C(=O)[O-].[Na+] (stereo not drawn) [XK469-R]
Colon carcinoma 26; [18]
  % Body Wt change at nadir: −8.1%
  Activity Rating: + (0.7-1.2)
  CR's: 0/6
  Drug Deaths: 0/6
  Growth Delay: 5 days
  Log Kill: 0.9
  Median time for tumors to 700 mg (range): 18 (15-20) days
  PR's: 0/6
  Tumor Free day-156: 0/6
  day of nadir: 13 days
Colon carcinoma 26; [19]
  % Body Wt change at nadir: −4.0%
  Activity Rating: inactive
  CR's: 0/6
  Drug Deaths: 0/6
  Growth Delay in Days: none
  Log Kill: none
  Median time for tumors to 700 mg (range): 13 (11.5-20) days
  PR's: 0/6
  Tumor Free day-156: 0/6
  day of nadir: 13 days
